Source: patent publication US8258127B2, “Methods for treating latent tuberculosis” (Institut National de la Sante et de la Recherche Medicale …, priority 2008, dated 2012)

What was measured:
[1] = molecular target: T1, LdtMt1 L,D-transpeptidase (Mycobacterium tuberculosis, UniProt O53638); assay: Inhibition of LdtMt1 L,D-transpeptidase activity by β-lactams (formation of mDap3→mDap3 cross-linked dimers, mass spectrometry); type: biochemical; conditions: for blocking of the L,D-transpeptidase enzyme (summary in words): summary statement of the description
T1 sequence (O53638 32-251 limits assumed): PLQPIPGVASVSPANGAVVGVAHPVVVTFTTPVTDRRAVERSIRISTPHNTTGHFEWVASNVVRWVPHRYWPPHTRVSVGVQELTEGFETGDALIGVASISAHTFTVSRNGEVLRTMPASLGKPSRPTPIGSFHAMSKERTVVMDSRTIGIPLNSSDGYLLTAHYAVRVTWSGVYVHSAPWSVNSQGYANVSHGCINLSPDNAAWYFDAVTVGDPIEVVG
Protocol: The disaccharide-tetrapeptide containing amidated meso-diaminopimelic acid (GlcNAc-MurNAc-L-Ala^1-D-iGln^2-mesoDapNH2^3-D-Ala^4) was purified from C. jeikeium strain CIP103337 and the concentration w as determined by amino acid analysis after acid hydrolysis (Arbeloa et al., 2007, J. Biol. Chem., Vol. 279: 41546-41556; Auger et al., FEMS Microbiol. Lett., Vol. 219: 115-119). In vitro formation of muropeptide dimers was tested in 10 μL of 50 mM Tris-HCl (pH 7.5) containing 300 mM NaCl, 11 μM LdtMt1, and 280 μM disaccharide-tetrapeptide. The reaction mixture was incubated for 2 hours at 37° C., treated with ammonium hydroxide, and the resulting lactoyl-peptides were analyzed by nanoelectrospray tandem mass spectrometry using N2 as the collision gas (Arbeloa et al., 2007, Supra).
LdtMt1 (12.5 μM) was pre-incubated for 20 min at 37° C. with ampicillin (Bristol-Myers), ceftriaxone (Roche Applied Science), and imipenem (Merck Sharpe and Dhome-Chibret) in 50 mM Tris-HCl (pH 7.5) containing 300 mM NaCl (buffer A). The L,D-transpeptidation reaction was started by the addition of the disaccharide-tetrapeptide (final concentration 280 μM) and allowed to proceed for 2 hours at 37° C. The reaction products were detected by mass spectrometry (Mainardi et al., 2007, J. Biol. Chem., Vol. 282: 30414-30422).
To investigate inhibition of the L,D-transpeptidase activity of LdtMt1 by β-lactams, the formation of dimers containing mDap^3→mDap^3 cross-links was tested in the presence of various drug concentrations.

[2] = molecular target: T1, LdtMt1 L,D-transpeptidase; assay: Formation of enzyme-drug adducts between LdtMt1 and β-lactams (electrospray mass spectrometry); type: binding; conditions: LdtMt1 12.5 μM, β-lactam 125 μM, 1 h at 37° C.; for Average mass Observated of LdtMt1-β-lactam adduct: ND: not detected, native protein 24,584.4
Protocol: LdtMt1 (12.5 μM) was incubated without antibiotic (left panel) or with 125 μM imipenem (right panel). Proteins and adducts were detected by electrospray mass spectrometry. Peaks at m/z 848.75 and 879.03 correspond to the [M+29H]^29+ and [M+28H]^28+ ions of the native protein, respectively (deduced average mass of 24,584.4). Peaks at m/z 859.08 and 889.65 correspond to the [M+29H]^29+ and [M+28H]^28+ ions of the LdtMt1-imipenem adduct (deduced average mass of 24,883.5).
The formation of enzyme-drug adducts was tested by incubating LdtMt1 (12.5 μM) with β-lactams (125 μM) for 1 h at 37° C. in buffer A. The reaction mixture was dialyzed against water for 30 min and the average mass of proteins and protein-β-lactam adducts was determined as described (Mainardi et al., 2007, Supra).
To gain insight into the mechanism of LdtMt1 inhibition by β-lactams, binding of the drugs to the enzyme was tested by electrospray mass spectrometry. […] Adducts matching increments of the average mass of other carbapenems, meropenem and ertapenem, were also detected (Table 2 hereunder).

[3] = LdtMt1 12.5 μM, pre-incubated 20 min at 37° C., disaccharide-tetrapeptide 280 μM, 2 hours

Compound	highest tested concentration without inhibition of LdtMt1 [1, 3]	blocking of the L,D-transpeptidase enzyme (summary in words) [1]	formation of adduct with LdtMt1 (in words) [2]	drug concentration required for full inhibition of enzyme activity [1, 3]	Average mass Observated of LdtMt1-β-lactam adduct [2]
CC1(C)S[C@@H]2[C@H](NC(=O)[C@H](N)c3ccccc3)C(=O)N2[C@H]1C(=O)O [Ampicillin, ampicillin]	> 5.7 mM	inactive	No adduct was detected	–	–
CO/N=C(\C(=O)N[C@@H]1C(=O)N2C(C(=O)O)=C(CSc3nc(=O)c(=O)[nH]n3C)CS[C@H]12)c1csc(N)n1 [Ceftriaxone, ceftriaxone]	–	–	No adduct was detected	360 µM	–
C[C@@H](O)[C@H]1C(=O)N2C(C(=O)O)=C(S[C@@H]3CN[C@H](C(=O)N(C)C)C3)[C@H](C)[C@H]12 [Meropenem, meropenem]	–	block the said L,D-transpeptidase enzyme	detected	–	24,967.8
C[C@@H](O)[C@H]1C(=O)N2C(C(=O)O)=C(S[C@@H]3CN[C@H](C(=O)Nc4cccc(C(=O)O)c4)C3)[C@H](C)[C@H]12 [Ertapenem, ertapenem]	–	block the said L,D-transpeptidase enzyme	detected	–	25,059.9
